Test results from patent publication US20160271263A1 (Novo Nordisk A/S, priority 2010, published 2016).
Numbered stars: 1 amine (or outer) side, 2 acyl side, 3 side chain; on linkers, the order of the positions; unused ones are H or OH. Square brackets hold non-standard residues; d marks the D form. Side chains are listed from the residue outwards. Peptide text beside a SMILES is read from it. * marks the point of attachment. C18 diacid = O=C(O)CCCCCCCCCCCCCCCCC(=O)*; γGlu = O=C(O)[C@H](CCC(=O)[*:2])N[*:1]; AEEA = NCCOCCOCC(=O)O

target: glucagon receptor (Homo sapiens, UniProt P47871); experiment: cell-based
Sequence (P47871 26-477): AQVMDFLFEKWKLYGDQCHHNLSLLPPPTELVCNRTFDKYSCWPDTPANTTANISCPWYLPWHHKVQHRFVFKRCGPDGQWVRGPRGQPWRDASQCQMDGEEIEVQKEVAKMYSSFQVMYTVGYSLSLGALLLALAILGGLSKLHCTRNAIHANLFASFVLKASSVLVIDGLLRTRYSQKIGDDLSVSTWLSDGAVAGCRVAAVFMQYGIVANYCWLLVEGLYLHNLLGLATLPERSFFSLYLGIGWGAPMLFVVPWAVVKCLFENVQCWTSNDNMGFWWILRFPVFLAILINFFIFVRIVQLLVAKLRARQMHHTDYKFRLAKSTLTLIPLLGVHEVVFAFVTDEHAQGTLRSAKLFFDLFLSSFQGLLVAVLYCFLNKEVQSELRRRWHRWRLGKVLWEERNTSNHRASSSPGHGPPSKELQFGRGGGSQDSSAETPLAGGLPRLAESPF

SMILES | EC50 [nM]
CC(C)C[C@H](NC(=O)[C@H](Cc1ccc(O)cc1)NC(=O)[C@H](CCCCN)NC(=O)[C@H](CO)NC(=O)[C@H](Cc1ccc(O)cc1)NC(=O)[C@H](CC(=O)O)NC(=O)[C@H](CO)NC(=O)[C@@H](NC(=O)[C@H](Cc1ccccc1)NC(=O)[C@@H](NC(=O)CNC(=O)[C@H](CCC(N)=O)NC(=O)[C@@H](CO)NC(=O)[C@@H](N)Cc1c[nH]cn1)[C@@H](C)O)[C@@H](C)O)C(=O)N[C@@H](CC(=O)O)C(=O)N[C@@H](CCC(=O)O)C(=O)N[C@@H](CCCNC(=N)N)C(=O)N[C@@H](CCCNC(=N)N)C(=O)N[C@@H](C)C(=O)N[C@@H](CCC(N)=O)C(=O)N[C@@H](CC(=O)O)C(=O)N[C@@H](Cc1ccccc1)C(=O)N[C@H](C(=O)N[C@@H](CCCCNC(=O)COCCOCCNC(=O)COCCOCCNC(=O)CC[C@H](NC(=O)CCCCCCCCCCCCCCCCC(=O)O)C(=O)O)C(=O)N[C@@H](Cc1c[nH]c2ccccc12)C(=O)N[C@@H](CC(C)C)C(=O)N[C@@H](CC(C)C)C(=O)N[C@@H](CC(N)=O)C(=O)N[C@H](C(=O)O)[C@@H](C)O)C(C)C [Example 2] (H-H[dS]QGTFTSDYSKYLDERRAQDFVK([AEEA-AEEA-γGlu-C18 diacid])WLLNT-OH; N-terminus and C-terminus assumed) | 0.149
CC(C)C[C@H](NC(=O)[C@H](Cc1ccc(O)cc1)NC(=O)[C@H](CCCCN)NC(=O)[C@H](CO)NC(=O)[C@H](Cc1ccc(O)cc1)NC(=O)[C@H](CC(=O)O)NC(=O)[C@H](CO)NC(=O)[C@@H](NC(=O)[C@H](Cc1ccccc1)NC(=O)[C@@H](NC(=O)CNC(=O)[C@H](CCC(N)=O)NC(=O)[C@H](CO)NC(=O)[C@@H](N)Cc1c[nH]cn1)[C@@H](C)O)[C@@H](C)O)C(=O)N[C@@H](CC(=O)O)C(=O)N[C@@H](CO)C(=O)N[C@@H](CCCNC(=N)N)C(=O)N[C@@H](CCCNC(=N)N)C(=O)N[C@@H](C)C(=O)N[C@@H](CCC(N)=O)C(=O)N[C@@H](CC(=O)O)C(=O)N[C@@H](Cc1ccccc1)C(=O)N[C@H](C(=O)N[C@@H](CCC(N)=O)C(=O)N[C@@H](CCCCNC(=O)COCCOCCNC(=O)COCCOCCNC(=O)CC[C@H](NC(=O)CCCCCCCCCCCCCCCCC(=O)O)C(=O)O)C(=O)N[C@@H](CC(C)C)C(=O)N[C@@H](CC(C)C)C(=O)N[C@@H](CC(N)=O)C(=O)N[C@H](C(=O)O)[C@@H](C)O)C(C)C [Example 7] | 0.155
CC(C)C[C@H](NC(=O)[C@H](Cc1c[nH]c2ccccc12)NC(=O)[C@H](CCCCNC(=O)COCCOCCNC(=O)COCCOCCNC(=O)CC[C@H](NC(=O)CCCCCCCCCCCCCCCCC(=O)O)C(=O)O)NC(=O)[C@@H](NC(=O)[C@H](Cc1ccccc1)NC(=O)[C@H](CC(=O)O)NC(=O)[C@H](CCC(N)=O)NC(=O)[C@H](C)NC(=O)[C@H](CCCNC(=N)N)NC(=O)[C@H](CCCNC(=N)N)NC(=O)[C@@H](NC(=O)[C@H](CC(=O)O)NC(=O)[C@H](CC(C)C)NC(=O)[C@H](Cc1ccc(O)cc1)NC(=O)[C@H](CCCCN)NC(=O)[C@H](CO)NC(=O)[C@H](Cc1ccc(O)cc1)NC(=O)[C@H](CC(=O)O)NC(=O)[C@H](CO)NC(=O)[C@@H](NC(=O)[C@H](Cc1ccccc1)NC(=O)[C@@H](NC(=O)CNC(=O)[C@H](CCC(N)=O)NC(=O)[C@H](CO)NC(=O)[C@@H](N)Cc1c[nH]cn1)[C@@H](C)O)[C@@H](C)O)[C@@H](C)O)C(C)C)C(=O)N[C@@H](CC(C)C)C(=O)N[C@@H](CO)C(=O)N[C@H](C(=O)O)[C@@H](C)O [Example 13] (H-HSQGTFTSDYSKYLDTRRAQDFVK([AEEA-AEEA-γGlu-C18 diacid])WLLST-OH; N-terminus and C-terminus assumed) | 0.016
CC(C)C[C@H](NC(=O)[C@H](Cc1ccc(O)cc1)NC(=O)[C@H](CCCCN)NC(=O)[C@H](CO)NC(=O)[C@H](Cc1ccc(O)cc1)NC(=O)[C@H](CC(=O)O)NC(=O)[C@H](CO)NC(=O)[C@@H](NC(=O)[C@H](Cc1ccccc1)NC(=O)[C@@H](NC(=O)CNC(=O)[C@H](CCC(N)=O)NC(=O)[C@H](CO)NC(=O)[C@@H](N)Cc1c[nH]cn1)[C@@H](C)O)[C@@H](C)O)C(=O)N[C@@H](CC(=O)O)C(=O)N[C@@H](CO)C(=O)N[C@@H](CCCNC(=N)N)C(=O)N[C@@H](CCCNC(=N)N)C(=O)N[C@@H](C)C(=O)N[C@@H](CCC(N)=O)C(=O)N[C@@H](CC(=O)O)C(=O)N[C@@H](Cc1ccccc1)C(=O)N[C@H](C(=O)N[C@@H](CCCCNC(=O)COCCOCCNC(=O)COCCOCCNC(=O)CC[C@H](NC(=O)CCCCCCCCCCCCCCCCC(=O)O)C(=O)O)C(=O)N[C@@H](Cc1c[nH]c2ccccc12)C(=O)N[C@@H](CC(C)C)C(=O)N[C@@H](CC(C)C)C(=O)N[C@@H](CO)C(=O)N[C@H](C(=O)O)[C@@H](C)O)C(C)C [Example 14] | 0.02

More lines, in order of falling EC50, values ahead:

EC50 [nM] | SMILES
0.046 | CC(C)C[C@H](NC(=O)[C@H](CC(C)C)NC(=O)[C@H](Cc1c[nH]c2ccccc12)NC(=O)[C@H](CCC(N)=O)NC(=O)[C@@H](NC(=O)[C@H](Cc1ccccc1)NC(=O)[C@H](CC(=O)O)NC(=O)[C@H](CCC(N)=O)NC(=O)[C@H](C)NC(=O)[C@H](CCCNC(=N)N)NC(=O)[C@H](CCCNC(=N)N)NC(=O)[C@H](CO)NC(=O)[C@H](CC(=O)O)NC(=O)[C@H](CC(C)C)NC(=O)[C@H](Cc1ccc(O)cc1)NC(=O)[C@H](CCCCN)NC(=O)[C@H](CO)NC(=O)[C@H](Cc1ccc(O)cc1)NC(=O)[C@H](CC(=O)O)NC(=O)[C@H](CO)NC(=O)[C@@H](NC(=O)[C@H](Cc1ccccc1)NC(=O)[C@@H](NC(=O)CNC(=O)[C@H](CCC(N)=O)NC(=O)[C@H](CO)NC(=O)[C@@H](N)Cc1c[nH]cn1)[C@@H](C)O)[C@@H](C)O)C(C)C)C(=O)N[C@@H](CC(N)=O)C(=O)N[C@@H](CCCCNC(=O)COCCOCCNC(=O)COCCOCCNC(=O)CC[C@H](NC(=O)CCCCCCCCCCCCCCCCC(=O)O)C(=O)O)C(=O)O [Example 10]
0.022 | CC(C)C[C@H](NC(=O)[C@H](Cc1ccc(O)cc1)NC(=O)[C@H](CCCCN)NC(=O)[C@H](CO)NC(=O)[C@H](Cc1ccc(O)cc1)NC(=O)[C@H](CC(=O)O)NC(=O)[C@H](CO)NC(=O)[C@@H](NC(=O)[C@H](Cc1ccccc1)NC(=O)[C@@H](NC(=O)CNC(=O)[C@H](CCC(N)=O)NC(=O)[C@H](CO)NC(=O)[C@@H](N)Cc1c[nH]cn1)[C@@H](C)O)[C@@H](C)O)C(=O)N[C@@H](CC(=O)O)C(=O)N[C@@H](CO)C(=O)N[C@@H](CCCCN)C(=O)N[C@@H](CCCNC(=N)N)C(=O)N[C@@H](C)C(=O)N[C@@H](CCC(N)=O)C(=O)N[C@@H](CCC(=O)O)C(=O)N[C@@H](Cc1ccccc1)C(=O)N[C@H](C(=O)N[C@@H](CCCCNC(=O)COCCOCCNC(=O)COCCOCCNC(=O)CC[C@H](NC(=O)CCCCCCCCCCCCCCCCC(=O)O)C(=O)O)C(=O)N[C@@H](Cc1c[nH]c2ccccc12)C(=O)N[C@@H](CC(C)C)C(=O)N[C@@H](CC(C)C)C(=O)N[C@@H](CC(N)=O)C(=O)N[C@H](C(=O)O)[C@@H](C)O)C(C)C [Example 4] (H-HSQGTFTSDYSKYLDSKRAQEFVK([AEEA-AEEA-γGlu-C18 diacid])WLLNT-OH; N-terminus and C-terminus assumed)
0.022 | CC(C)C[C@H](NC(=O)[C@H](Cc1ccc(O)cc1)NC(=O)[C@H](CCCCN)NC(=O)[C@H](CO)NC(=O)[C@H](Cc1ccc(O)cc1)NC(=O)[C@H](CC(=O)O)NC(=O)[C@H](CO)NC(=O)[C@@H](NC(=O)[C@H](Cc1ccccc1)NC(=O)[C@@H](NC(=O)CNC(=O)[C@H](CCC(N)=O)NC(=O)[C@H](CO)NC(=O)[C@@H](N)Cc1c[nH]cn1)[C@@H](C)O)[C@@H](C)O)C(=O)N[C@@H](CC(=O)O)C(=O)N[C@@H](CO)C(=O)N[C@@H](CCCNC(=N)N)C(=O)N[C@@H](CCCNC(=N)N)C(=O)N[C@@H](C)C(=O)N[C@@H](CCC(N)=O)C(=O)N[C@@H](CC(=O)O)C(=O)N[C@@H](Cc1ccccc1)C(=O)N[C@H](C(=O)N[C@@H](CCC(N)=O)C(=O)N[C@@H](Cc1c[nH]c2ccccc12)C(=O)N[C@@H](CC(C)C)C(=O)N[C@@H](CC(C)C)C(=O)N[C@@H](CCCCNC(=O)COCCOCCNC(=O)COCCOCCNC(=O)CC[C@H](NC(=O)CCCCCCCCCCCCCCCCC(=O)O)C(=O)O)C(=O)N[C@H](C(=O)O)[C@@H](C)O)C(C)C [Example 8]
0.02 | CC(C)C[C@H](NC(=O)[C@H](Cc1ccc(O)cc1)NC(=O)[C@H](CCCCN)NC(=O)[C@H](CO)NC(=O)[C@H](Cc1ccc(O)cc1)NC(=O)[C@H](CC(=O)O)NC(=O)[C@H](CO)NC(=O)[C@@H](NC(=O)[C@H](Cc1ccccc1)NC(=O)[C@@H](NC(=O)CNC(=O)[C@H](CCC(N)=O)NC(=O)[C@H](CO)NC(=O)[C@@H](N)Cc1c[nH]cn1)[C@@H](C)O)[C@@H](C)O)C(=O)N[C@@H](CC(=O)O)C(=O)N[C@@H](CCCCNC(=O)COCCOCCNC(=O)COCCOCCNC(=O)CC[C@H](NC(=O)CCCCCCCCCCCCCCCCC(=O)O)C(=O)O)C(=O)N[C@@H](CCCCN)C(=O)N[C@@H](CCCNC(=N)N)C(=O)N[C@@H](C)C(=O)N[C@@H](CCC(N)=O)C(=O)N[C@@H](CCC(=O)O)C(=O)N[C@@H](Cc1ccccc1)C(=O)N[C@H](C(=O)N[C@@H](CCC(N)=O)C(=O)N[C@@H](Cc1c[nH]c2ccccc12)C(=O)N[C@@H](CC(C)C)C(=O)N[C@@H](CC(C)C)C(=O)N[C@@H](CC(N)=O)C(=O)N[C@H](C(=O)O)[C@@H](C)O)C(C)C [Example 5] (H-HSQGTFTSDYSKYLDK([AEEA-AEEA-γGlu-C18 diacid])KRAQEFVQWLLNT-OH; N-terminus and C-terminus assumed)
0.02 | CC(C)C[C@H](NC(=O)[C@H](Cc1ccc(O)cc1)NC(=O)[C@H](CCCCN)NC(=O)[C@H](CO)NC(=O)[C@H](Cc1ccc(O)cc1)NC(=O)[C@H](CC(=O)O)NC(=O)[C@H](CO)NC(=O)[C@@H](NC(=O)[C@H](Cc1ccccc1)NC(=O)[C@@H](NC(=O)CNC(=O)[C@H](CCC(N)=O)NC(=O)[C@H](CO)NC(=O)[C@@H](N)Cc1c[nH]cn1)[C@@H](C)O)[C@@H](C)O)C(=O)N[C@@H](CC(=O)O)C(=O)N[C@@H](CCCCNC(=O)COCCOCCNC(=O)COCCOCCNC(=O)CC[C@H](NC(=O)CCCCCCCCCCCCCCCCC(=O)O)C(=O)O)C(=O)N[C@@H](CCCCN)C(=O)N[C@@H](CCCCN)C(=O)N[C@@H](C)C(=O)N[C@@H](CCC(N)=O)C(=O)N[C@@H](CCC(=O)O)C(=O)N[C@@H](Cc1ccccc1)C(=O)N[C@H](C(=O)N[C@@H](CCC(N)=O)C(=O)N[C@@H](Cc1c[nH]c2ccccc12)C(=O)N[C@@H](CC(C)C)C(=O)N[C@@H](CC(C)C)C(=O)N[C@@H](CC(N)=O)C(=O)N[C@H](C(=O)O)[C@@H](C)O)C(C)C [Example 6] (H-HSQGTFTSDYSKYLDK([AEEA-AEEA-γGlu-C18 diacid])KKAQEFVQWLLNT-OH; N-terminus and C-terminus assumed)
